# Test results: ChEMBL document CHEMBL1201862, “PubChem BioAssay data set” (2004)
#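 The compound was tested at five concentrations on cells cultured in 96-well plates, with a 48-hour exposure period. Here, GI50 denotes the concentration required for 50% inhibition of growth.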 The source made the active and inactive calls. No stated cut-off is given here; in the data, active = GI50 up to about 1.1 µM and inactive = higher.
# Assays:
# Experiment in all cases: NCI tumour cell line growth inhibition, 48 h
# HT-29 = system: HT-29
# K562 = system: K562
# LOX IMVI = system: LOX IMVI
# LXFL 529 = system: LXFL 529
# NCI-H23 = system: NCI-H23
# NCI-H460 = system: NCI-H460
# OVCAR-4 = system: OVCAR-4
# OVCAR-8 = system: OVCAR-8
# RXF 393 = system: RXF 393
# SK-OV-3 = system: SK-OV-3
# SNB-19 = system: SNB-19
# TK-10 = system: TK-10
# BT-549 = system: BT-549
# CCRF-CEM = system: CCRF-CEM
# HCT-116 = system: HCT-116
# NCI-H226 = system: NCI-H226
# RPMI-8226 = system: RPMI-8226
# SF-539 = system: SF-539
# SK-MEL-5 = system: SK-MEL-5
# UACC-257 = system: UACC-257
SMILES,GI50 (HT-29),GI50 (K562),GI50 (LOX IMVI),GI50 (LXFL 529),GI50 (NCI-H23),GI50 (NCI-H460),GI50 (OVCAR-4),GI50 (OVCAR-8),GI50 (RXF 393),GI50 (SK-OV-3),GI50 (SNB-19),GI50 (TK-10),GI50 (BT-549),GI50 (CCRF-CEM),GI50 (HCT-116),GI50 (NCI-H226),GI50 (RPMI-8226),GI50 (SF-539),GI50 (SK-MEL-5),GI50 (UACC-257)
CCOC(=O)C1(C)CCCCC(=O)N1 (stereo not drawn),> 100 µM (inactive),> 100 µM (inactive),> 100 µM (inactive),> 100 µM (inactive),> 100 µM (inactive),> 100 µM (inactive),> 100 µM (inactive),> 100 µM (inactive),> 100 µM (inactive),> 100 µM (inactive),> 100 µM (inactive),> 100 µM (inactive),–,–,–,–,–,–,–,–
Cc1cc(=O)oc2cc(OC(=O)Nc3ccccc3)ccc12,> 100 µM (inactive),35.6 µM (inactive),> 100 µM (inactive),–,69.5 µM (inactive),84.7 µM (inactive),> 100 µM (inactive),53.3 µM (inactive),92.7 µM (inactive),70.6 µM (inactive),> 100 µM (inactive),> 100 µM (inactive),22.9 µM (inactive),27.2 µM (inactive),47.8 µM (inactive),73.1 µM (inactive),25.4 µM (inactive),> 100 µM (inactive),59 µM (inactive),> 100 µM (inactive)
Nc1ccc(C2=N/C(=C\c3cccc(N)c3)C(=O)O2)cc1,> 100 µM (inactive),> 100 µM (inactive),–,> 100 µM (inactive),> 100 µM (inactive),–,> 100 µM (inactive),> 100 µM (inactive),> 100 µM (inactive),> 100 µM (inactive),> 100 µM (inactive),> 100 µM (inactive),–,67.3 µM (inactive),–,–,–,> 100 µM (inactive),> 100 µM (inactive),–
O=[N+]([O-])C(=C(\Cl)NCCO)/C(Cl)=C(/Cl)Br,1.83 µM (inactive),0.665 µM (active),0.885 µM (active),–,2.9 µM (inactive),2.7 µM (inactive),0.716 µM (active),1.87 µM (inactive),2.6 µM (inactive),15 µM (inactive),6.7 µM (inactive),2.16 µM (inactive),1.77 µM (inactive),0.323 µM (active),1.61 µM (inactive),6.73 µM (inactive),1.48 µM (inactive),2.34 µM (inactive),2.44 µM (inactive),1.87 µM (inactive)
O=c1c2cc(I)ccc2nc(-c2cccs2)n1/N=C/c1ccccc1,> 100 µM (inactive),7.18 µM (inactive),> 100 µM (inactive),–,> 100 µM (inactive),> 100 µM (inactive),> 100 µM (inactive),> 100 µM (inactive),> 100 µM (inactive),> 100 µM (inactive),> 100 µM (inactive),> 100 µM (inactive),> 100 µM (inactive),> 100 µM (inactive),> 100 µM (inactive),> 100 µM (inactive),> 100 µM (inactive),> 100 µM (inactive),> 100 µM (inactive),79.1 µM (inactive)
COc1cc(N(C)C)c(OC)cc1/C=C\c1ccnc2ccccc12,3.1 µM (inactive),4.01 µM (inactive),0.746 µM (active),–,3.86 µM (inactive),2.96 µM (inactive),> 10 µM (inactive),9.44 µM (inactive),> 10 µM (inactive),> 10 µM (inactive),> 10 µM (inactive),2.12 µM (inactive),4.34 µM (inactive),3.56 µM (inactive),3.09 µM (inactive),8.83 µM (inactive),2.71 µM (inactive),2.33 µM (inactive),0.815 µM (active),3.73 µM (inactive)
C=CCCn1nc(-c2ccccc2)oc1=O,> 100 µM (inactive),> 100 µM (inactive),> 100 µM (inactive),> 100 µM (inactive),> 100 µM (inactive),> 100 µM (inactive),> 100 µM (inactive),> 100 µM (inactive),> 100 µM (inactive),> 100 µM (inactive),> 100 µM (inactive),> 100 µM (inactive),–,> 100 µM (inactive),> 100 µM (inactive),> 100 µM (inactive),–,> 100 µM (inactive),> 100 µM (inactive),> 100 µM (inactive)
C[C@H](CCC(=O)O)[C@H]1CC[C@H]2[C@@H]3[C@H](O)C[C@@H]4C[C@H](O)CC[C@]4(C)[C@H]3C[C@H](O)[C@]12C,> 100 µM (inactive),> 100 µM (inactive),> 100 µM (inactive),–,> 100 µM (inactive),> 100 µM (inactive),> 100 µM (inactive),> 100 µM (inactive),> 100 µM (inactive),> 100 µM (inactive),> 100 µM (inactive),> 100 µM (inactive),> 100 µM (inactive),> 100 µM (inactive),> 100 µM (inactive),> 100 µM (inactive),> 100 µM (inactive),> 100 µM (inactive),> 100 µM (inactive),> 100 µM (inactive)
O=[N+]([O-])/C=C/c1cn(CCCCCn2cc(/C=C/[N+](=O)[O-])c3ccccc32)c2ccccc12,1.56 µM (inactive),0.83 µM (active),0.611 µM (active),–,4.02 µM (inactive),1.79 µM (inactive),2.44 µM (inactive),3.27 µM (inactive),0.582 µM (active),23.2 µM (inactive),6.73 µM (inactive),1.82 µM (inactive),1.28 µM (inactive),1.04 µM (active),0.283 µM (active),0.805 µM (active),0.24 µM (active),1.88 µM (inactive),1.75 µM (inactive),3.27 µM (inactive)
CN/N=C(/Cc1occc(=O)c1O)C(=O)Nc1ccccc1C,> 100 µM (inactive),> 100 µM (inactive),> 100 µM (inactive),> 100 µM (inactive),> 100 µM (inactive),> 100 µM (inactive),> 100 µM (inactive),> 100 µM (inactive),–,> 100 µM (inactive),> 100 µM (inactive),> 100 µM (inactive),–,> 100 µM (inactive),> 100 µM (inactive),> 100 µM (inactive),> 100 µM (inactive),> 100 µM (inactive),> 100 µM (inactive),> 100 µM (inactive)
CC1CN1c1c(C(=O)/C=C/c2ccc(Cl)cc2)c(-c2ccccc2)nn(C)c1=O (stereo not drawn),3.65 µM (inactive),2.82 µM (inactive),2.08 µM (inactive),2.13 µM (inactive),2.77 µM (inactive),2.28 µM (inactive),2.61 µM (inactive),2.55 µM (inactive),3.01 µM (inactive),2.59 µM (inactive),9.71 µM (inactive),2.92 µM (inactive),–,2.24 µM (inactive),2.52 µM (inactive),4.99 µM (inactive),–,1.94 µM (inactive),–,3.67 µM (inactive)
CCOC(=O)C1(Cc2ccc3ccccc3c2)CCCCCN1 (stereo not drawn),12.6 µM (inactive),22.8 µM (inactive),20.1 µM (inactive),34.1 µM (inactive),30 µM (inactive),18.4 µM (inactive),31.4 µM (inactive),39.6 µM (inactive),20.4 µM (inactive),32.7 µM (inactive),43.7 µM (inactive),54.1 µM (inactive),–,–,–,–,5.6 µM (inactive),–,–,–
C/C(=N/CC(=O)O)c1ccccc1,> 100 µM (inactive),> 100 µM (inactive),> 100 µM (inactive),–,92.5 µM (inactive),> 100 µM (inactive),> 100 µM (inactive),> 100 µM (inactive),> 100 µM (inactive),> 100 µM (inactive),> 100 µM (inactive),> 100 µM (inactive),61 µM (inactive),27.8 µM (inactive),> 100 µM (inactive),> 100 µM (inactive),> 100 µM (inactive),> 100 µM (inactive),89.5 µM (inactive),> 100 µM (inactive)
Cc1ccc(C(=O)CCl)o1,4.71 µM (inactive),3.93 µM (inactive),2.98 µM (inactive),–,5.37 µM (inactive),> 10 µM (inactive),4.15 µM (inactive),> 4.5 µM (inactive),> 9.31 µM (inactive),> 10 µM (inactive),> 10 µM (inactive),6.9 µM (inactive),5.3 µM (inactive),2.39 µM (inactive),1.86 µM (inactive),> 10 µM (inactive),2.33 µM (inactive),4.15 µM (inactive),> 7.96 µM (inactive),> 9.2 µM (inactive)
O=C(COc1ccccc1Cl)N1N=C(c2ccccc2)CC1(O)c1ccccc1 (stereo not drawn),17 µM (inactive),14.3 µM (inactive),16.7 µM (inactive),17.1 µM (inactive),12.1 µM (inactive),18 µM (inactive),11.3 µM (inactive),16.6 µM (inactive),–,14.9 µM (inactive),16.4 µM (inactive),17.1 µM (inactive),–,–,16.4 µM (inactive),18.5 µM (inactive),8.17 µM (inactive),18.9 µM (inactive),–,20.7 µM (inactive)
O=C1c2c(ccc3c2CCCC3)CC1Cc1ccc2c(c1)CCCC2 (stereo not drawn),17.1 µM (inactive),36.1 µM (inactive),63.8 µM (inactive),–,39.5 µM (inactive),38.5 µM (inactive),28.8 µM (inactive),88.3 µM (inactive),14.3 µM (inactive),> 100 µM (inactive),> 100 µM (inactive),> 100 µM (inactive),> 100 µM (inactive),21.3 µM (inactive),25.5 µM (inactive),> 100 µM (inactive),21.6 µM (inactive),> 100 µM (inactive),22.6 µM (inactive),28.3 µM (inactive)
